Laboratory results published in the NIST ThermoML archive (doi:10.1016/j.fluid.2014.11.020).
Numbers after ± are expanded uncertainties.

Assay: activity coefficient (dimensionless); of the first substance listed, at infinite dilution; xn = mol fraction of the nth substance listed
Conditions: Liquid, Chromatography, x1 = 0

SMILES	activity coefficient (323.15 K)	activity coefficient (333.15 K)	activity coefficient (343.15 K)
C[N+](=O)[O-] [nitromethane] + CN(C)c1cc[n+](COCCCOC[n+]2ccc(N(C)C)cc2)cc1.O=S(=O)([N-]S(=O)(=O)C(F)(F)F)C(F)(F)F.O=S(=O)([N-]S(=O)(=O)C(F)(F)F)C(F)(F)F	0.39 ± 0.03	0.39 ± 0.03	0.38 ± 0.03
C#CCCCC [1-hexyne] + CCCCCCCCn1cc[n+](COCCC)c1C.N#C[N-]C#N	1.73 ± 0.12	2.14 ± 0.15	2.01 ± 0.14
CCC(C)=O [butanone] + CCCOC[n+]1ccn(C)c1.O=S(=O)([N-]S(=O)(=O)C(F)(F)F)C(F)(F)F	0.47 ± 0.04	0.43 ± 0.04	0.4 ± 0.03
CCCCCCCCCCCC [dodecane] + CCCCCCCCn1cc[n+](COCCCOC[n+]2ccn(CCCCCCCC)c2C)c1C.O=S(=O)([N-]S(=O)(=O)C(F)(F)F)C(F)(F)F.O=S(=O)([N-]S(=O)(=O)C(F)(F)F)C(F)(F)F	15.4 ± 1.1	13.9 ± 0.95	13.1 ± 0.89
CCOCC [diethyl ether] + CCCCCCCCn1cc[n+](COCCCOC[n+]2ccn(CCCCCCCC)c2C)c1C.O=S(=O)([N-]S(=O)(=O)C(F)(F)F)C(F)(F)F.O=S(=O)([N-]S(=O)(=O)C(F)(F)F)C(F)(F)F	0.86 ± 0.06	0.88 ± 0.06	0.92 ± 0.06
C1CCCCC1 [cyclohexane] + CCCOC[n+]1ccn(C)c1.O=S(=O)([N-]S(=O)(=O)C(F)(F)F)C(F)(F)F	9.55 ± 0.65	9.25 ± 0.63	9.07 ± 0.62
CCc1ccccc1 [ethylbenzene] + CN(C)c1cc[n+](COCCCOC[n+]2ccc(N(C)C)cc2)cc1.O=S(=O)([N-]S(=O)(=O)C(F)(F)F)C(F)(F)F.O=S(=O)([N-]S(=O)(=O)C(F)(F)F)C(F)(F)F	1.46 ± 0.1	1.49 ± 0.1	1.5 ± 0.1
CCCCCCCCCC [decane] + CCCCCCCCn1cc[n+](COCCCOC[n+]2ccn(CCCCCCCC)c2C)c1C.N#C[N-]C#N.N#C[N-]C#N	19.5 ± 1.3	19.5 ± 1.3	17.8 ± 1.2
CC1CCCC1 [methylcyclopentane] + Cn1cc[n+](COCCCOC[n+]2ccn(C)c2)c1.O=S(=O)([N-]S(=O)(=O)C(F)(F)F)C(F)(F)F.O=S(=O)([N-]S(=O)(=O)C(F)(F)F)C(F)(F)F	16.4 ± 1.1	10.2 ± 0.7	
CC1CCCC1 [methylcyclopentane] + CCCOC[n+]1ccn(C)c1.N#C[N-]C#N	27.7 ± 1.9	24.4 ± 1.7	
CCC(C)=O [butanone] + Cn1cc[n+](COCCCOC[n+]2ccn(C)c2)c1.N#C[N-]C#N.N#C[N-]C#N	1.7 ± 0.11	1.56 ± 0.1	1.44 ± 0.09
CC#N [acetonitrile] + N#C[N-]C#N.N#C[N-]C#N.c1ccc(Cn2cc[n+](COCCCOC[n+]3ccn(Cc4ccccc4)c3)c2)cc1	0.99 ± 0.06	0.97 ± 0.06	0.98 ± 0.06
CCCCCC [hexane] + CCCOC[n+]1ccn(Cc2ccccc2)c1.N#C[N-]C#N	32.4 ± 2.2		
CC1CCCCC1 [methylcyclohexane] + CCCOC[n+]1ccn(Cc2ccccc2)c1.O=S(=O)([N-]S(=O)(=O)C(F)(F)F)C(F)(F)F	6.47 ± 0.44	6.14 ± 0.42	5.7 ± 0.39
c1ccsc1 [thiophene] + CCCCCCCCn1cc[n+](COCCCOC[n+]2ccn(CCCCCCCC)c2C)c1C.O=S(=O)([N-]S(=O)(=O)C(F)(F)F)C(F)(F)F.O=S(=O)([N-]S(=O)(=O)C(F)(F)F)C(F)(F)F	0.38 ± 0.03	0.37 ± 0.03	0.38 ± 0.03
CO [methanol] + CCCCCCCCn1cc[n+](COCCCOC[n+]2ccn(CCCCCCCC)c2C)c1C.O=S(=O)([N-]S(=O)(=O)C(F)(F)F)C(F)(F)F.O=S(=O)([N-]S(=O)(=O)C(F)(F)F)C(F)(F)F	0.57 ± 0.04	0.51 ± 0.04	0.49 ± 0.04
CCC[N+](=O)[O-] [1-nitropropane] + CCCOC[n+]1ccc(N(C)C)cc1.O=S(=O)([N-]S(=O)(=O)C(F)(F)F)C(F)(F)F	0.68 ± 0.05	0.69 ± 0.05	0.69 ± 0.05
ClCCl [dichloromethane] + CCCOC[n+]1ccc(N(C)C)cc1.O=S(=O)([N-]S(=O)(=O)C(F)(F)F)C(F)(F)F	0.57 ± 0.04	0.62 ± 0.04	0.63 ± 0.04
CCCO [propan-1-ol] + CCCOC[n+]1ccn(C)c1.F[B-](F)(F)F	3.1 ± 0.21	2.79 ± 0.19	2.53 ± 0.17
C#CCCCCC [1-heptyne] + Cn1cc[n+](COCCCOC[n+]2ccn(C)c2)c1.N#C[N-]C#N.N#C[N-]C#N	27.6 ± 1.9	26.2 ± 1.8	26.1 ± 1.8
CCO [ethanol] + CCCOC[n+]1ccn(C)c1.F[B-](F)(F)F	2.1 ± 0.14	1.9 ± 0.13	1.75 ± 0.12
C#CCCCC [1-hexyne] + CCCOC[n+]1ccn(Cc2ccccc2)c1.O=S(=O)([N-]S(=O)(=O)C(F)(F)F)C(F)(F)F	2.14 ± 0.15	2.35 ± 0.16	
CC#N [acetonitrile] + Cn1cc[n+](COCCCOC[n+]2ccn(C)c2)c1.N#C[N-]C#N.N#C[N-]C#N	0.68 ± 0.05	0.68 ± 0.05	0.69 ± 0.05
c1ccccc1 [benzene] + CCCOC[n+]1ccc(N(C)C)cc1.O=S(=O)([N-]S(=O)(=O)C(F)(F)F)C(F)(F)F	0.74 ± 0.05	0.78 ± 0.05	0.78 ± 0.05
Cc1ccccc1C [1,2-dimethylbenzene] + CCCCCCCCn1cc[n+](COCCCOC[n+]2ccn(CCCCCCCC)c2C)c1C.N#C[N-]C#N.N#C[N-]C#N	1.16 ± 0.07	1.18 ± 0.08	1.22 ± 0.08
CCO [ethanol] + N#C[N-]C#N.N#C[N-]C#N.c1ccc(Cn2cc[n+](COCCCOC[n+]3ccn(Cc4ccccc4)c3)c2)cc1	0.94 ± 0.06	0.89 ± 0.06	0.86 ± 0.06
CCCCO [butan-1-ol] + CCCOC[n+]1ccn(Cc2ccccc2)c1.F[B-](F)(F)F	3 ± 0.2	2.59 ± 0.18	2.39 ± 0.16
CC1CCCC1 [methylcyclopentane] + CN(C)c1cc[n+](COCCCOC[n+]2ccc(N(C)C)cc2)cc1.O=S(=O)([N-]S(=O)(=O)C(F)(F)F)C(F)(F)F.O=S(=O)([N-]S(=O)(=O)C(F)(F)F)C(F)(F)F	11 ± 0.75	9.51 ± 0.65	9 ± 0.61
Cc1cccc(C)c1 [1,3-dimethylbenzene] + CCCCCCCCn1cc[n+](COCCC)c1C.N#C[N-]C#N	1.54 ± 0.1	1.54 ± 0.1	1.57 ± 0.1
CC(C)OC(C)C [diisopropyl ether] + CCCCCCCCn1cc[n+](COCCCOC[n+]2ccn(CCCCCCCC)c2C)c1C.O=S(=O)([N-]S(=O)(=O)C(F)(F)F)C(F)(F)F.O=S(=O)([N-]S(=O)(=O)C(F)(F)F)C(F)(F)F	1.54 ± 0.1	1.56 ± 0.1	1.54 ± 0.1
